Experimental findings from the supplement of paper PMC12613149 are described below.

Data set [1] can be described thus: reversed-phase LC retention time (C18, 15 min MeOH gradient); higher = more hydrophobic / later elution.
Data set [2] in a line: collision cross section (TIMS, N2 drift gas) of the primary ion; higher = larger gas-phase ion size.
Where [3] appears, read: ionization mode: ESI+, ion species: [M+H]+.
Setting [4] is: ionization mode: ESI-, ion species: [M-H]-.
Where [5] appears, read: ionization mode: ESI+, ion species: [M]+.

For the compound `COC(=O)N(OC)c1ccccc1COc1ccn(-c2ccc(Cl)cc2)n1` [Pyraclostrobin], in data set [1] (setting [3]), the “reversed-phase LC retention time” value was 15.8 min. The compound also displayed a collision cross section in data set [2] (setting [3]) of 184.99 Å².
The like results for `CCOC(=O)c1cn2nc(OP(=S)(OCC)OCC)cc2nc1C` [Pyrazophos] were, in that order, 15.8 min and 187.33 Å².
For `CC(C)(C)c1ccc(CSc2cnn(C(C)(C)C)c(=O)c2Cl)cc1` [Pyridaben], the “reversed-phase LC retention time” value in data set [1] (setting [3]) was 17.9 min. Further, in data set [2] (setting [3]), the collision cross section is 193.46 Å².
As for `CC(COc1ccc(Oc2ccccc2)cc1)Oc1ccccn1` (stereo not drawn) [Pyriproxyfen], the “reversed-phase LC retention time” value in data set [1] (setting [3]) stood at 16.9 min. The compound also had a collision cross section in data set [2] (setting [3]) of 184.89 Å².
For the compound `Cc1cnc2c(C(=O)O)c(Cl)ccc2c1` [Quinmerac], the “reversed-phase LC retention time” value in data set [1] (setting [3]) was 9.27 min. In data set [2] (setting [3]), this compound showed a collision cross section of 139.87 Å².
Taken in the same sequence, the figures for `[O-][n+]1cccc2ccccc21` [Quinoline N-oxide] were 7.48 min and 124.14 Å².
For the compound `c1ccc2ncccc2c1` [Quinoline], the “reversed-phase LC retention time” value in data set [1] (setting [3]) was 9.66 min. In data set [2] (setting [3]), this compound displayed a collision cross section of 118.24 Å².
As to `Fc1ccc(Oc2ccnc3cc(Cl)cc(Cl)c23)cc1` [Quinoxyfen], the “reversed-phase LC retention time” value in data set [1] (setting [3]) is 17.1 min. In addition, the collision cross section in data set [2] (setting [3]) is given as 164.99 Å².
Take `CC(Oc1ccc(Oc2cnc3cc(Cl)ccc3n2)cc1)C(=O)O` (stereo not drawn) [Quizalofop]: the “reversed-phase LC retention time” value in data set [1] (setting [4]) turned out to be 13.5 min. Also, in data set [2] (setting [4]), the collision cross section was determined as 192.68 Å².
Regarding `O=C(c1ccc(OCCN2CCCCC2)cc1)c1c(-c2ccc(O)cc2)sc2cc(O)ccc12` [Raloxifene], the “reversed-phase LC retention time” value came to 11.3 min in data set [1] (setting [3]) and 15.4 min in data set [1] (setting [4]). Also, the collision cross section in data set [2] (setting [3]) is recorded as 216.23 Å²; in data set [2] (setting [4]) it was 213.83 Å².
Take `CN/C(=C\[N+](=O)[O-])NCCSCc1ccc(CN(C)C)o1` [Ranitidine]: the “reversed-phase LC retention time” value stood at 6.09 min in data set [1] (setting [3]) and 10.1 min in data set [1] (setting [4]). Also, the collision cross section in data set [2] (setting [3]) was found to be 168.6 Å²; in data set [2] (setting [4]), 181.06 Å².
Taken in the same sequence, the figures for `CCC(=O)[C@@]1(C)[C@H](C)C[C@H]2[C@@H]3CCC4=CC(=O)C=C[C@]4(C)[C@H]3[C@@H](O)C[C@@]21C` [Rimexolone] were 16 min, 16.4 min, 192.28 Å² and 191.62 Å².
With `Cc1nc2n(c(=O)c1CCN1CCC(c3noc4cc(F)ccc34)CC1)CCCC2` [Risperidone], the “reversed-phase LC retention time” value in data set [1] (setting [3]) was 10.4 min. The same compound had a collision cross section in data set [2] (setting [3]) of 205.9 Å².
Taken in the same sequence, the figures for `CCCN(CCC)CCc1cccc2c1CC(=O)N2` [Ropinirole] were 7.95 min and 163.51 Å².
Take `CC[C@H]1OC(=O)[C@H](C)[C@@H](O[C@H]2C[C@@](C)(OC)[C@@H](O)[C@H](C)O2)[C@H](C)[C@@H](O[C@@H]2O[C@H](C)C[C@H](N(C)C)[C@H]2O)[C@](C)(O)C[C@@H](C)C(=NOCOCCOC)[C@H](C)[C@@H](O)[C@]1(C)O` [Roxithromycin]: the “reversed-phase LC retention time” value in data set [1] (setting [3]) was 14.1 min. In data set [2] (setting [3]), this compound had a collision cross section of 277.32 Å².
Turning to `CC1OC(OCC2OC(Oc3c(-c4ccc(O)c(O)c4)oc4cc(O)cc(O)c4c3=O)C(O)C(O)C2O)C(O)C(O)C1O` (stereo not drawn) [Rutin], the “reversed-phase LC retention time” value came out at 9.72 min in data set [1] (setting [3]) and 8.1 min in data set [1] (setting [4]). Also, the figures for the collision cross section in data set [2] (setting [3]) and in data set [2] (setting [4]) were 233.31 Å² and 232.48 Å², respectively.
As to `O=C1NS(=O)(=O)c2ccccc21` [Saccharin], the “reversed-phase LC retention time” value in data set [1] (setting [4]) stood at 4.8 min. Moreover, in data set [2] (setting [4]), the collision cross section is reported as 128.86 Å².
Taken in the same sequence, the figures for `CC[C@@H](C(=O)[C@@H](C)[C@@H](O)[C@H](C)[C@@H]1O[C@@H]([C@@H](CC)C(=O)O)CC[C@@H]1C)[C@H]1O[C@]2(C=C[C@@H](O)[C@]3(CC[C@@](C)([C@H]4CC[C@](O)(CC)[C@H](C)O4)O3)O2)[C@H](C)C[C@@H]1C` [Salinomycin] were 18.5 min and 263.17 Å².
`CCCC[N+]1(C)[C@H]2CC(OC(=O)C(CO)c3ccccc3)C[C@H]1[C@H]1O[C@H]12` (stereo partly drawn) [Scopolamine-N-butyl]: the “reversed-phase LC retention time” value in data set [1] (setting [5]) is 9.85 min. Besides, the collision cross section in data set [2] (setting [5]) is given as 188.31 Å².
Take `COc1cc2ccc(=O)oc2cc1O` [Scopoletin]: the “reversed-phase LC retention time” value in data set [1] (setting [4]) stood at 7.44 min. This compound also registered a collision cross section in data set [2] (setting [4]) of 133.5 Å².
Consider `O=C(O)CCCCCCCCC(=O)O` [Sebacic acid], for which the entries for the “reversed-phase LC retention time” value in data set [1] (setting [3]) and in data set [1] (setting [4]) were 17 min and 3.2 min, respectively. Moreover, the collision cross section in data set [2] (setting [3]) worked out at 176.16 Å²; in data set [2] (setting [4]), 142.73 Å².
As to `C=CCC1(C(C)CCC)C(=O)NC(=O)NC1=O` (stereo not drawn) [Secobarbital], in data set [1] (setting [4]), the “reversed-phase LC retention time” value was 12.7 min. For the same compound, the collision cross section in data set [2] (setting [4]) is 153.23 Å².
Consider `CN[C@H]1CC[C@@H](c2ccc(Cl)c(Cl)c2)c2ccccc21` [Sertraline], for which the “reversed-phase LC retention time” value in data set [1] (setting [3]) is 13.8 min. Moreover, in data set [2] (setting [3]), the collision cross section is recorded as 168.55 Å².
For `CCNc1nc(NCC)[nH]c(=O)n1` [Simazine 2-Hydroxy], the “reversed-phase LC retention time” value is 7.22 min in data set [1] (setting [3]) and 8.55 min in data set [1] (setting [4]). Besides, the collision cross section stood at 140.79 Å² in data set [2] (setting [3]) and 140.22 Å² in data set [2] (setting [4]).
Regarding `CCNc1nc(Cl)nc(NCC)n1` [Simazine], the “reversed-phase LC retention time” value in data set [1] (setting [3]) amounted to 11.5 min. The compound also showed a collision cross section in data set [2] (setting [3]) of 142.98 Å².
With `CCNc1nc(NCC)nc(SC)n1` [Simetryn], the “reversed-phase LC retention time” value in data set [1] (setting [3]) was found to be 11.6 min. The compound also had a collision cross section in data set [2] (setting [3]) of 149.02 Å².
Turning to `NC(CC(=O)N1CCn2c(nnc2C(F)(F)F)C1)Cc1cc(F)c(F)cc1F` (stereo not drawn) [Sitagliptin], the results for the “reversed-phase LC retention time” value in data set [1] (setting [3]) and in data set [1] (setting [4]) were 9.57 min and 12.1 min, respectively. For the same compound, the collision cross section in data set [2] (setting [3]) is given as 192.92 Å²; in data set [2] (setting [4]), 182.72 Å².
